Experimental data taken from ChEMBL document CHEMBL1201862, “PubChem BioAssay data set” (2004).
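Dose response: 5 concentrations. Exposure: 48 h. Format: 96-well plates. Endpoint: linear interpolation; highest concentration if not reached. Abbreviation: GI50, concentration required for 50% inhibition of growth.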 Activity calls are given as the source filed them. Cut-off read from the data, not from the text of the source: active = GI50 up to about 1.1 µM and inactive = higher.

Columns and labels:
Assay in all cases: growth of human tumour cells (NCI), 48 h
CAKI-1 = system: CAKI-1
COLO 205 = system: COLO 205
HCT-116 = system: HCT-116
HCT-15 = system: HCT-15
HOP-92 = system: HOP-92
Hs-578T = system: Hs-578T
IGROV-1 = system: IGROV-1
MCF7 = system: MCF7
MDA-MB-435 = system: MDA-MB-435
MDA-N = system: MDA-N
MOLT-4 = system: MOLT-4
Malme-3M = system: Malme-3M
OVCAR-3 = system: OVCAR-3
OVCAR-5 = system: OVCAR-5
PC-3 = system: PC-3
RXF 393 = system: RXF 393
SR = system: SR
T47D = system: T47D
U-251 = system: U-251
UACC-62 = system: UACC-62

Measured: GI50

CN1CCc2nc(N)nc(-c3nc(N)nc4c3CN(C)CC4)c2C1
inactive: CAKI-1 > 100 µM | COLO 205 > 100 µM | HCT-116 > 100 µM | HOP-92 > 100 µM | Hs-578T > 100 µM | IGROV-1 > 100 µM | MCF7 > 100 µM | MDA-MB-435 > 100 µM | MDA-N > 100 µM | MOLT-4 > 100 µM | Malme-3M > 100 µM | OVCAR-3 > 100 µM | OVCAR-5 > 100 µM | PC-3 > 100 µM | RXF 393 > 100 µM | SR 33 µM | T47D > 100 µM | U-251 > 100 µM | UACC-62 > 100 µM
> 100 µM: HCT-15

CC1=NN(c2cccc(Cl)c2)C2(C1=Cc1ccccc1)C(Cl)C(=O)N2c1nc2ccccc2s1 (stereo not given)
inactive: CAKI-1 17.7 µM | HCT-116 16.7 µM | HOP-92 9.14 µM | Hs-578T 23.2 µM | IGROV-1 15.1 µM | MCF7 22.2 µM | MDA-MB-435 19.3 µM | MDA-N 19.8 µM | MOLT-4 23.5 µM | OVCAR-3 16.3 µM | OVCAR-5 21.3 µM | PC-3 16.8 µM | RXF 393 14 µM | SR 24.2 µM | T47D 18.5 µM | U-251 14.1 µM
15.9 µM: HCT-15

C[Si](C)(C)C#CCO[Si](C)(C)C
> 79.8 µM: HCT-15
inactive: CAKI-1 > 78.7 µM | COLO 205 > 54.3 µM | HCT-116 65 µM | HOP-92 18.2 µM | Hs-578T > 100 µM | IGROV-1 16.1 µM | MCF7 > 74.8 µM | MDA-MB-435 > 61.4 µM | MDA-N 49.8 µM | MOLT-4 22.3 µM | Malme-3M > 100 µM | OVCAR-3 > 94.2 µM | OVCAR-5 > 100 µM | PC-3 > 100 µM | RXF 393 > 100 µM | SR 34.1 µM | T47D > 70.6 µM | U-251 > 100 µM | UACC-62 56.5 µM

OC(c1ccsc1)c1cc2ccccc2s1 (stereo not given)
inactive: CAKI-1 > 10 µM | COLO 205 > 10 µM | HCT-116 > 10 µM | HOP-92 > 10 µM | Hs-578T > 10 µM | IGROV-1 > 10 µM | MCF7 > 10 µM | MDA-MB-435 > 10 µM | MDA-N > 10 µM | MOLT-4 > 10 µM | OVCAR-3 > 10 µM | OVCAR-5 > 10 µM | PC-3 > 10 µM | RXF 393 > 10 µM | SR > 10 µM | T47D > 10 µM | U-251 > 10 µM | UACC-62 > 10 µM
> 10 µM: HCT-15

O=C1O[C@]2(c3ccccc3)C(c3ccccc3)=C[C@]2(C(=O)c2ccccc2)C1=O
active: RXF 393 0.05 µM
inactive: CAKI-1 36.9 µM | COLO 205 48.2 µM | HCT-116 28.6 µM | HOP-92 24 µM | Hs-578T 39.2 µM | IGROV-1 33.1 µM | MCF7 28.4 µM | MDA-MB-435 37.2 µM | MDA-N 31.9 µM | MOLT-4 4.02 µM | Malme-3M 65.2 µM | OVCAR-3 32.6 µM | OVCAR-5 > 100 µM | PC-3 39.1 µM | SR 10.7 µM | T47D 1.12 µM | U-251 31.6 µM | UACC-62 29.8 µM
29.5 µM: HCT-15

Nc1nc(Cl)cc(NCC2(O)CC2)n1
> 100 µM: HCT-15
inactive: CAKI-1 > 100 µM | HCT-116 > 100 µM | HOP-92 > 100 µM | Hs-578T > 100 µM | IGROV-1 > 100 µM | MCF7 > 100 µM | MDA-MB-435 > 100 µM | MDA-N > 100 µM | MOLT-4 > 100 µM | Malme-3M > 100 µM | OVCAR-3 > 100 µM | OVCAR-5 > 100 µM | PC-3 > 100 µM | RXF 393 > 100 µM | SR > 100 µM | T47D > 100 µM | U-251 > 100 µM | UACC-62 > 100 µM

O=C1C=CC2(C=C1)O[C@H](CCc1ccccc1)[C@@H](CCc1ccccc1)O2
inactive: CAKI-1 > 100 µM | COLO 205 > 100 µM | HCT-116 99.3 µM | HOP-92 21.9 µM | Hs-578T > 100 µM | IGROV-1 98.9 µM | MCF7 > 100 µM | MDA-MB-435 27.9 µM | MDA-N > 100 µM | MOLT-4 81.8 µM | Malme-3M > 100 µM | OVCAR-3 > 100 µM | OVCAR-5 > 100 µM | PC-3 > 100 µM | RXF 393 24.3 µM | SR > 100 µM | T47D 76.4 µM | U-251 20.2 µM | UACC-62 > 100 µM
> 100 µM: HCT-15
